Our source for the EC50 values is BindingDB's records for doi:10.1021/jm0510530 (Universit&#224, 2006).

Assay [1] can be described thus: Vasodilator activity assessed as ability to relax phenylephrine-induced contraction of Wistar rat aortic strips in presence of 1 uM ODQ.
The nature of assay [2]: Vasodilator activity assessed as ability to relax phenylephrine-induced contraction of Wistar rat aortic strips.

Regarding `Cc1c(C)c2c(c(C)c1O)CCC(C)(COCCCO[N+](=O)[O-])O2` (centres undefined) [2,5,7,8-Tetramethyl-2-(3-nitrooxy-propoxymethyl)-chroman-6-ol], the EC50 (in general, the midpoint of the concentration-response curve) in assay [1] was determined as 10 µM; in assay [2], 1.2 µM.
With `O=[N+]([O-])OCCCc1ccc(O)cc1` [4-(3-Nitrooxy-propyl)-phenol], the EC50 in assay [2] was 1 µM.
Consider `Cc1c(C)c2c(c(C)c1O)CCC(C)(COc1no[n+]([O-])c1S(=O)(=O)c1ccccc1)O2` (centres undefined) [2-(4-Benzenesulfonyl-5-oxy-furazan-3-yloxymethyl)-2,5,7,8-tetramethyl-chroman-6-ol], for which the half-maximal effective concentration (EC50) in assay [1] was 0.67 µM; in assay [2] it was 0.044 µM.
With `CC(C)(C)c1cc(CCCOc2no[n+]([O-])c2S(=O)(=O)c2ccccc2)cc(C(C)(C)C)c1O` [4-(3-(3-benzenesulfonylfuroxan-4-yloxy)propyl)-2,6-di-tertbutylphenol], the concentration for a half-maximal effect (EC50) in assay [1] came out at 4.8 µM; in assay [2], 0.11 µM.
In the case of `Cc1c(C)c2c(c(C)c1O)CCC(C)(CN(C)Cc1no[n+]([O-])c1C(N)=O)O2` (centres undefined) [4-((N-((6-hydroxy-2,5,7,8-tetramethylchroman-2-yl)methyl)-N-methylamino)methyl)furoxan-3-carboxamide], the EC50 came to 19 µM in assay [1] and 1.5 µM in assay [2].
As for `CC(C)(C)c1cc(CCCO[N+](=O)[O-])cc(C(C)(C)C)c1O` [2,6-Di-tert-butyl-4-(3-nitrooxy-propyl)-phenol], the EC50 in assay [2] amounted to 40 µM.
For `O=S(=O)(c1ccccc1)c1c(OCCCc2ccc(O)cc2)no[n+]1[O-]` [4-(3-(3-benzenesulfonylfuroxan-4-yloxy)propyl)phenol], the figures for the concentration giving a half-maximal response (EC50) in assay [1] and in assay [2] were 0.36 µM and 0.012 µM, respectively.
In the case of `NC(=O)c1c(CO)no[n+]1[O-]` [4-hydroxymethyl-2-oxy-furazan-3-carboxylic acid amide], in assay [2], the EC50 is 6.3 µM.
Consider `CN(CCCc1cc(C(C)(C)C)c(O)c(C(C)(C)C)c1)Cc1no[n+]([O-])c1C(N)=O` [4-((N-(3-(3,5-di-tert-butyl-4-hydroxyphenyl)propyl)-N-methylamino)methyl)furoxan-3-carboxamide], for which the results for the EC50 in assay [1] and in assay [2] were 7.4 µM and 0.41 µM, respectively.
The matching figures for `COc1cc(CCCOc2no[n+]([O-])c2S(=O)(=O)c2ccccc2)cc(OC)c1O` [4-(3-(3-benzenesulfonylfuroxan-4-yloxy)propyl)-2,6-dimethoxyphenol]: 0.5 µM and 0.022 µM.
For `COc1cc(CCCO[N+](=O)[O-])cc(OC)c1O` [3-(4-hydroxy-3,5-dimethoxyphenyl)propyl nitrate], in assay [2], the EC50 came out at 4.3 µM.
Turning to `CN(C)Cc1no[n+]([O-])c1C(N)=O` [4-dimethylaminomethyl-2-oxy-furazan-3-carboxylic acid amide], the EC50 in assay [2] worked out at 3.1 µM.
